Experimental data from PMC7607875, “Enhancing the antibacterial activity of antimicrobial peptide PMAP-37(F34-R) by cholesterol modification” (BMC Veterinary Research, 2020).

How the values were obtained:
Assay in all cases: Inhibition zone assay (Kirby-Bauer disk diffusion)
Assay type in all cases: cell-based
Parameters in all cases: key: +, peptide have antibacterial activity
Conditions in all cases: disk with 10 μg, 37 °C, 18 h
S. typhimurium SL1344 = test system: S. typhimurium SL1344
Protocol: (§1) The antibacterial activity of Chol-37(F34-R) was detected using the Kirby-Bauer diffusion method. Four bacterial strains were used as experimental strains: L. monocytogenes CICC21634 cultured with BHI, P. aeruginosa GIM1.551 cultured with TSB, S. aureus ATCC25923, and S. typhimurium SL1344 cultured with LB medium. Briefly, the bacterial cells were cultured for 12 h at 37 °C in appropriate culture media, and the bacterial cell suspension was spread on the corresponding solid medium. Then, the disks containing 10 μg peptide or ceftiofur sodium were attached to the solid medium and incubated at 37 °C for 18 h. Lastly, the diameter of the inhibition zone was measured.

S. aureus ATCC25923 = test system: S. aureus ATCC25923
Protocol: as §1

P. aeruginosa GIM1.551 = test system: P. aeruginosa GIM1.551
Protocol: as §1

[1] = test system: L. monocytogenes CICC21634
Protocol: as §1

Measured: in vitro antibacterial activity (disk diffusion)

CO/N=C(\C(=O)N[C@@H]1C(=O)N2C(C(=O)[O-])=C(CSC(=O)c3ccco3)CS[C@H]12)c1csc(N)n1.[Na+] [ceftiofur sodium]
+: all assays above
